# Reference: PubChem BioAssay (NCI)
#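 How tested: cells in 96-well plates exposed to compound for 48 hours at five concentrations. GI50 is the concentration that inhibits growth by half. TGI is the concentration that stops growth completely.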
# What was measured:
# Assay in all cases: inhibition of tumour cell growth, NCI panel, 48 h
# COLO 205 colon = test system: COLO 205 colon
# HCC-2998 colon = test system: HCC-2998 colon
# MOLT-4 leukemia = test system: MOLT-4 leukemia
# MCF7 breast = test system: MCF7 breast
# 786-0 renal = test system: 786-0 renal
# A549 NSCLC = test system: A549 NSCLC
# NCI-H522 lung = test system: NCI-H522 lung
# HL-60(TB) leukemia = test system: HL-60(TB) leukemia
# SNB-75 CNS = test system: SNB-75 CNS
# HT29 colon = test system: HT29 colon
# ACHN renal = test system: ACHN renal
# SNB-19 CNS = test system: SNB-19 CNS
# OVCAR-8 ovarian = test system: OVCAR-8 ovarian
# K-562 leukemia = test system: K-562 leukemia
# LOX IMVI melanoma = test system: LOX IMVI melanoma
# SF-539 CNS = test system: SF-539 CNS
# NCI-H226 lung = test system: NCI-H226 lung
# A498 renal = test system: A498 renal
# MDA-MB-231 breast = test system: MDA-MB-231 breast
# RPMI-8226 leukemia = test system: RPMI-8226 leukemia
# NCI/ADR-RES ovarian = test system: NCI/ADR-RES ovarian
# OVCAR-5 ovarian = test system: OVCAR-5 ovarian
# SF-268 CNS = test system: SF-268 CNS
# SK-MEL-28 melanoma = test system: SK-MEL-28 melanoma
# SK-OV-3 ovarian = test system: SK-OV-3 ovarian
# EKVX NSCLC = test system: EKVX NSCLC
# NCI-H460 lung = test system: NCI-H460 lung
# SF-295 CNS = test system: SF-295 CNS
# CAKI-1 renal = test system: CAKI-1 renal
# UACC-62 melanoma = test system: UACC-62 melanoma
# HCT-116 colon = test system: HCT-116 colon
# PC-3 prostate = test system: PC-3 prostate
# MALME-3M melanoma = test system: MALME-3M melanoma
# DU-145 prostate = test system: DU-145 prostate
# TK-10 renal = test system: TK-10 renal
# BT-549 breast = test system: BT-549 breast
# SW-620 colon = test system: SW-620 colon
# MDA-MB-435 = test system: MDA-MB-435
# UACC-257 melanoma = test system: UACC-257 melanoma
# T-47D breast = test system: T-47D breast
# OVCAR-3 ovarian = test system: OVCAR-3 ovarian
# SK-MEL-5 melanoma = test system: SK-MEL-5 melanoma
# M14 melanoma = test system: M14 melanoma
# HS 578T breast = test system: HS 578T breast
# SK-MEL-2 melanoma = test system: SK-MEL-2 melanoma
# SN12C renal = test system: SN12C renal
# U251 CNS = test system: U251 CNS
# HCT-15 colon = test system: HCT-15 colon
# KM12 colon = test system: KM12 colon
# NCI-H23 lung = test system: NCI-H23 lung
# OVCAR-4 ovarian = test system: OVCAR-4 ovarian
# UO-31 renal = test system: UO-31 renal
# HOP-92 NSCLC = test system: HOP-92 NSCLC
# HOP-62 NSCLC = test system: HOP-62 NSCLC
structure (smiles),measurement,setting,value
COc1ccc(C(=O)/C=C/c2c(OC)cc(OC)cc2OC)c(OC)c1,GI50,COLO 205 colon,3.38 µM
same,TGI,COLO 205 colon,> 100 µM
same,GI50,HCC-2998 colon,2.51 µM
same,TGI,HCC-2998 colon,> 100 µM
same,GI50,MOLT-4 leukemia,> 100 µM
same,TGI,MOLT-4 leukemia,> 100 µM
same,GI50,MCF7 breast,3.85 µM
same,TGI,MCF7 breast,> 100 µM
same,GI50,786-0 renal,15.4 µM
same,TGI,786-0 renal,> 100 µM
same,GI50,A549 NSCLC,5.36 µM
same,TGI,A549 NSCLC,> 100 µM
same,GI50,NCI-H522 lung,2.47 µM
same,TGI,NCI-H522 lung,> 100 µM
same,GI50,HL-60(TB) leukemia,3.64 µM
same,TGI,HL-60(TB) leukemia,> 100 µM
same,GI50,SNB-75 CNS,3.26 µM
same,TGI,SNB-75 CNS,> 100 µM
same,GI50,HT29 colon,0.881 µM
same,TGI,HT29 colon,> 100 µM
same,GI50,ACHN renal,21.5 µM
same,TGI,ACHN renal,> 100 µM
same,GI50,SNB-19 CNS,8.37 µM
same,TGI,SNB-19 CNS,> 100 µM
same,GI50,OVCAR-8 ovarian,4.91 µM
same,TGI,OVCAR-8 ovarian,> 100 µM
same,GI50,K-562 leukemia,0.853 µM
same,TGI,K-562 leukemia,> 100 µM
same,GI50,LOX IMVI melanoma,3.7 µM
same,TGI,LOX IMVI melanoma,> 100 µM
same,GI50,SF-539 CNS,2.7 µM
same,TGI,SF-539 CNS,> 100 µM
same,GI50,NCI-H226 lung,21.3 µM
same,TGI,NCI-H226 lung,> 100 µM
same,GI50,A498 renal,2.23 µM
same,TGI,A498 renal,8.87 µM
same,GI50,MDA-MB-231 breast,5.76 µM
same,TGI,MDA-MB-231 breast,> 100 µM
same,GI50,RPMI-8226 leukemia,5.8 µM
same,TGI,RPMI-8226 leukemia,> 100 µM
same,GI50,NCI/ADR-RES ovarian,0.78 µM
same,TGI,NCI/ADR-RES ovarian,> 100 µM
same,GI50,OVCAR-5 ovarian,> 100 µM
same,TGI,OVCAR-5 ovarian,> 100 µM
same,GI50,SF-268 CNS,7.33 µM
same,TGI,SF-268 CNS,> 100 µM
same,GI50,SK-MEL-28 melanoma,> 100 µM
same,TGI,SK-MEL-28 melanoma,> 100 µM
same,GI50,SK-OV-3 ovarian,27.9 µM
same,TGI,SK-OV-3 ovarian,> 100 µM
same,GI50,EKVX NSCLC,4.2 µM
same,TGI,EKVX NSCLC,> 100 µM
same,GI50,NCI-H460 lung,2.77 µM
same,TGI,NCI-H460 lung,> 100 µM
same,GI50,SF-295 CNS,0.987 µM
same,TGI,SF-295 CNS,5.31 µM
same,GI50,CAKI-1 renal,1.44 µM
same,TGI,CAKI-1 renal,> 100 µM
same,GI50,UACC-62 melanoma,1.32 µM
same,TGI,UACC-62 melanoma,> 100 µM
same,GI50,HCT-116 colon,3.31 µM
same,TGI,HCT-116 colon,> 100 µM
same,GI50,PC-3 prostate,4.6 µM
same,TGI,PC-3 prostate,> 100 µM
same,GI50,MALME-3M melanoma,7.44 µM
same,TGI,MALME-3M melanoma,> 100 µM
same,GI50,DU-145 prostate,3.21 µM
same,TGI,DU-145 prostate,> 100 µM
same,GI50,TK-10 renal,36.6 µM
same,TGI,TK-10 renal,> 100 µM
same,GI50,BT-549 breast,83.8 µM
same,TGI,BT-549 breast,> 100 µM
same,GI50,SW-620 colon,0.911 µM
same,TGI,SW-620 colon,> 100 µM
same,GI50,MDA-MB-435,0.275 µM
same,TGI,MDA-MB-435,0.947 µM
same,GI50,UACC-257 melanoma,36.6 µM
same,TGI,UACC-257 melanoma,> 100 µM
same,GI50,T-47D breast,16.8 µM
same,TGI,T-47D breast,> 100 µM
same,GI50,OVCAR-3 ovarian,1.46 µM
same,TGI,OVCAR-3 ovarian,8.37 µM
same,GI50,SK-MEL-5 melanoma,1.51 µM
same,TGI,SK-MEL-5 melanoma,> 100 µM
same,GI50,M14 melanoma,2.59 µM
same,TGI,M14 melanoma,> 100 µM
same,GI50,HS 578T breast,5.23 µM
same,TGI,HS 578T breast,> 100 µM
same,GI50,SK-MEL-2 melanoma,5.52 µM
same,TGI,SK-MEL-2 melanoma,> 100 µM
same,GI50,SN12C renal,7.24 µM
same,TGI,SN12C renal,> 100 µM
same,GI50,U251 CNS,3.95 µM
same,TGI,U251 CNS,> 100 µM
same,GI50,HCT-15 colon,2.42 µM
same,TGI,HCT-15 colon,> 100 µM
same,GI50,KM12 colon,1.21 µM
same,TGI,KM12 colon,> 100 µM
same,GI50,NCI-H23 lung,3.09 µM
same,TGI,NCI-H23 lung,> 100 µM
same,GI50,OVCAR-4 ovarian,> 100 µM
same,TGI,OVCAR-4 ovarian,> 100 µM
same,GI50,UO-31 renal,> 100 µM
same,TGI,UO-31 renal,> 100 µM
same,GI50,HOP-92 NSCLC,16.6 µM
same,TGI,HOP-92 NSCLC,95.2 µM
same,GI50,HOP-62 NSCLC,11.8 µM
same,TGI,HOP-62 NSCLC,> 100 µM
